Results taken from PMC11062899, “De novo development of small cyclic peptides that are orally bioavailable” (Nature Chemical Biology, 2023).
Several values for one entry are separate records, joined by “and”; a condition that tells them apart may be missing. Equal entries are not always repeated. Where two headings read alike, the source gives them in different places.

Legend:
rat α-thrombin = biological target: T1, rat α-thrombin (Rattus norvegicus, UniProt P18292); test: Protease inhibition, Ki for rat α-thrombin (fluorogenic substrate Z-Gly-Gly-Arg-AMC); type: biochemical
T1 construct: rat α-thrombin (Molecular Innovations) were used at final concentrations of 2 nM and 3 nM; purchased Molecular Innovations
How it was run: (§1)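 Ki derived through Cheng–Prusoff from IC50s (four-parameter logistic fit) against activity of peptide-free controls. Product fluorescence was read every 3 min over 30 min at 25 °C, substrate Z-Gly-Gly-Arg-AMC at 50 μM. Enzyme was 2 nM human or 3 nM rat α-thrombin, pH 7.4 buffer.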

human α-thrombin = human α-thrombin (Homo sapiens, UniProt P00734); test: Protease inhibition, Ki for human α-thrombin (fluorogenic substrate Z-Gly-Gly-Arg-AMC); type: biochemical; conditions: for slope normalized to DMSO, human alpha thrombin inhibition / Human alpha thrombin inhibition, slope normalized to DMSO: replicates R1-R3
How it was run: as §1

[1] = Peptide stability in simulated intestinal fluid (SIF); type: in vitro ADME, porcine; conditions: pig, simulated gi fluid; 8 h, 37 °C, pH 6.8; read-out: Proteolytic stability: SIF (8 h) % remaining
How it was run: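 Peptide from a 1 mM DMSO stock was added to fluid pre-warmed at 37 °C. SGF was pH 1.2 NaCl with porcine pepsin (0.32 g per 100 ml), and SIF was pH 6.8 potassium phosphate with porcine pancreatin (1 g per 100 ml). Supernatant peptide was quantified by LC–MS, with residual expressed as T1/T0.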

Ki (rat α-thrombin; purified peptide, mean and s.d. of three measurements, read-out: Ki rat α-thrombin): 11.1 ± 1.4 nM | IC50 (rat α-thrombin; single replicates R1-R3, read-out: Rat alpha thrombin inhibition, IC50): 17.1 nM and 20.2 nM and 23.1 nM | Ki (rat α-thrombin; single replicates R1-R3, read-out: Rat alpha thrombin inhibition, Ki): 9.46 nM and 11.2 nM and 12.8 nM | slope normalized to DMSO, human alpha thrombin inhibition (human α-thrombin; peptide 1.00E+02 uM): 10.6 and 8.4 (2×) | slope normalized to DMSO, human alpha thrombin inhibition (human α-thrombin; peptide 1.19E-05 uM): 106.5 and 81.0 and 107.9 | slope normalized to DMSO, human alpha thrombin inhibition (human α-thrombin; peptide 1.22E-02 uM): 62.0 and 85.6 and 70.0 | slope normalized to DMSO, human alpha thrombin inhibition (human α-thrombin; peptide 1.25E+01 uM): 12.3 and 9.9 and 11.8 | slope normalized to DMSO, human alpha thrombin inhibition (human α-thrombin; peptide 1.53E-03 uM): 95.1 and 99.7 and 102.7 | slope normalized to DMSO, human alpha thrombin inhibition (human α-thrombin; peptide 1.56E+00 uM): 18.3 and 16.9 and 22.5 | slope normalized to DMSO, human alpha thrombin inhibition (human α-thrombin; peptide 1.91E-04 uM): 119.9 and 101.0 and 100.8 | slope normalized to DMSO, human alpha thrombin inhibition (human α-thrombin; peptide 1.95E-01 uM): 42.7 and 40.6 and 41.3 | slope normalized to DMSO, human alpha thrombin inhibition (human α-thrombin; peptide 2.38E-05 uM): 106.9 and 97.9 and 102.5 | slope normalized to DMSO, human alpha thrombin inhibition (human α-thrombin; peptide 2.44E-02 uM): 46.0 and 65.3 and 70.3 | slope normalized to DMSO, human alpha thrombin inhibition (human α-thrombin; peptide 2.50E+01 uM): 11.7 and 11.0 and 8.9 | slope normalized to DMSO, human alpha thrombin inhibition (human α-thrombin; peptide 3.05E-03 uM): 106.1 and 101.5 and 67.8 | slope normalized to DMSO, human alpha thrombin inhibition (human α-thrombin; peptide 3.12E+00 uM): 3.8 and 18.2 and 18.8 | slope normalized to DMSO, human alpha thrombin inhibition (human α-thrombin; peptide 3.81E-04 uM): 102.1 and 100.1 and 93.5 | slope normalized to DMSO, human alpha thrombin inhibition (human α-thrombin; peptide 3.91E-01 uM): 14.9 and 22.0 and 10.5 | slope normalized to DMSO, human alpha thrombin inhibition (human α-thrombin; peptide 4.77E-05 uM): 101.9 and 97.6 and 92.9 | slope normalized to DMSO, human alpha thrombin inhibition (human α-thrombin; peptide 4.88E-02 uM): 73.8 and 55.8 and 60.0 | slope normalized to DMSO, human alpha thrombin inhibition (human α-thrombin; peptide 5.00E+01 uM): 9.3 and 5.3 | slope normalized to DMSO, human alpha thrombin inhibition (human α-thrombin; peptide 6.10E-03 uM): 98.4 and 93.3 and 99.0 | slope normalized to DMSO, human alpha thrombin inhibition (human α-thrombin; peptide 6.25E+00 uM): 13.3 and 15.1 and 10.3 | slope normalized to DMSO, human alpha thrombin inhibition (human α-thrombin; peptide 7.63E-04 uM): 80.8 and 91.3 and 104.9 | slope normalized to DMSO, human alpha thrombin inhibition (human α-thrombin; peptide 7.81E-01 uM): 21.2 and 22.0 (2×) | slope normalized to DMSO, human alpha thrombin inhibition (human α-thrombin; peptide 9.54E-05 uM): 101.3 and 101.9 and 107.5 | slope normalized to DMSO, human alpha thrombin inhibition (human α-thrombin; peptide 9.77E-02 uM): 65.8 and 56.8 and 59.4 | Human alpha thrombin inhibition, slope normalized to DMSO (human α-thrombin; peptide concentration 1.00E+02 uM): 10.6 and 8.4 (2×) | Human alpha thrombin inhibition, slope normalized to DMSO (human α-thrombin; peptide concentration 1.19E-05 uM): 106.5 and 81.0 and 107.9 | Human alpha thrombin inhibition, slope normalized to DMSO (human α-thrombin; peptide concentration 1.22E-02 uM): 62.0 and 85.6 and 70.0 | Human alpha thrombin inhibition, slope normalized to DMSO (human α-thrombin; peptide concentration 1.25E+01 uM): 12.3 and 9.9 and 11.8 | Human alpha thrombin inhibition, slope normalized to DMSO (human α-thrombin; peptide concentration 1.53E-03 uM): 95.1 and 99.7 and 102.7 | Human alpha thrombin inhibition, slope normalized to DMSO (human α-thrombin; peptide concentration 1.56E+00 uM): 18.3 and 16.9 and 22.5 | Human alpha thrombin inhibition, slope normalized to DMSO (human α-thrombin; peptide concentration 1.91E-04 uM): 119.9 and 101.0 and 100.8 | Human alpha thrombin inhibition, slope normalized to DMSO (human α-thrombin; peptide concentration 1.95E-01 uM): 42.7 and 40.6 and 41.3 | Human alpha thrombin inhibition, slope normalized to DMSO (human α-thrombin; peptide concentration 2.38E-05 uM): 106.9 and 97.9 and 102.5 | Human alpha thrombin inhibition, slope normalized to DMSO (human α-thrombin; peptide concentration 2.44E-02 uM): 46.0 and 65.3 and 70.3 | Human alpha thrombin inhibition, slope normalized to DMSO (human α-thrombin; peptide concentration 2.50E+01 uM): 11.7 and 11.0 and 8.9 | Human alpha thrombin inhibition, slope normalized to DMSO (human α-thrombin; peptide concentration 3.05E-03 uM): 106.1 and 101.5 and 67.8 | Human alpha thrombin inhibition, slope normalized to DMSO (human α-thrombin; peptide concentration 3.12E+00 uM): 3.8 and 18.2 and 18.8 | Human alpha thrombin inhibition, slope normalized to DMSO (human α-thrombin; peptide concentration 3.81E-04 uM): 102.1 and 100.1 and 93.5 | Human alpha thrombin inhibition, slope normalized to DMSO (human α-thrombin; peptide concentration 3.91E-01 uM): 14.9 and 22.0 and 10.5 | Human alpha thrombin inhibition, slope normalized to DMSO (human α-thrombin; peptide concentration 4.77E-05 uM): 101.9 and 97.6 and 92.9 | Human alpha thrombin inhibition, slope normalized to DMSO (human α-thrombin; peptide concentration 4.88E-02 uM): 73.8 and 55.8 and 60.0 | Human alpha thrombin inhibition, slope normalized to DMSO (human α-thrombin; peptide concentration 5.00E+01 uM): 9.3 and 5.3 | Human alpha thrombin inhibition, slope normalized to DMSO (human α-thrombin; peptide concentration 6.10E-03 uM): 98.4 and 93.3 and 99.0 | Human alpha thrombin inhibition, slope normalized to DMSO (human α-thrombin; peptide concentration 6.25E+00 uM): 13.3 and 15.1 and 10.3 | Human alpha thrombin inhibition, slope normalized to DMSO (human α-thrombin; peptide concentration 7.63E-04 uM): 80.8 and 91.3 and 104.9 | Human alpha thrombin inhibition, slope normalized to DMSO (human α-thrombin; peptide concentration 7.81E-01 uM): 21.2 and 22.0 (2×) | Human alpha thrombin inhibition, slope normalized to DMSO (human α-thrombin; peptide concentration 9.54E-05 uM): 101.3 and 101.9 and 107.5 | Human alpha thrombin inhibition, slope normalized to DMSO (human α-thrombin; peptide concentration 9.77E-02 uM): 65.8 and 56.8 and 59.4 | Ki (human α-thrombin; purified peptide, mean and s.d. of three measurements, read-out: Ki human α-thrombin): 50 ± 6 nM | IC50 (human α-thrombin; single replicates R1-R3, read-out: Human alpha thrombin inhibition, IC50): 56.4 nM and 74.7 nM and 63.5 nM | Ki (human α-thrombin; single replicates R1-R3, read-out: Human alpha thrombin inhibition, Ki): 43.5 nM and 57.6 nM and 48.9 nM | remaining at 8 h [1]: 91 ± 9%
Structure (SMILES): O=C1C[C@H]2CCCN2C(=O)[C@H](Cc2ccccc2)NC(=O)[C@@H](NC(=O)c2ccc(Cl)s2)CCC=CCCCCN1 [peptide 43]
